# Measurements reported in patent publication US9694027B2, “Pyrazole derivative and use thereof for medical purposes” (KISSEI PHARMACEUTICAL CO. LTD., priority 2012, dated 2017).
# Legend:
# [1] = test system: Loperamide-induced dog constipation model; experiment: Loperamide-induced dog constipation model (Example 1); type: in vivo; settings: for Dry fecal weight within 24 hours after the administration / Wet fecal weight within 24 hours after the administration / Frequency of bowel movement within 24 hours after the administration: mean of 10 dogs; for Dry fecal weight within 24 hours after the administration: Control group 1.0, Normal group 47.1; for Wet fecal weight within 24 hours after the administration: Control group 2.8, Normal group 136.2; for Frequency of bowel movement within 24 hours after the administration: observation at 17, 21, 24 hours, Control group 0.2, Normal group 2.1
# Protocol: Lubiprostone (TLC Pharma Chem) was weighed and was suspended in 0.5% methylcellulose at preparation concentrations of 0.05 and 0.35 mg/mL to prepare control substances.
# Loperamide hydrochloride (Wako pure chemical) was weighed at 0.3, 0.5, 1.0, 2.0, 4.0 or 8.0 mg/kg for each animal and was filled into a gelatin capsule.
# Loperamide hydrochloride which was filled into a gelatin capsule was orally administered to dogs (beagle, male, 13-14 months old, 10 dogs, Kitayama-labesu). The dosage was increased from 0.3 mg/kg, and was set at 2.0, 4.0 or 8.0 mg/kg based on the bowel movement condition of each dog.
# Tests were performed as a full cross-over trial. More than 5-day washout period was provided between each test, and a recovery of stool form was identified, and then the next test was performed.
# A gelatin capsule which was filled with loperamide hydrochloride was administered orally at around 9 a.m. on the first and second days in each test.
# The stool form of feces was scored in seven categories based on Bristol Stool Form Scale. The collected feces were dried fully, and then the feces were weighed, and it was set as the dry fecal weight.
# [2] = test system: rat model of low-fiber diet-induced constipation; experiment: Rat model of low-fiber diet-induced constipation (Example 2); settings: for Fecal weight within 24 hours after the administration: followed by mixed carbohydrate, n=4, Control group 1 0.53, Normal feed group 8.33
# Protocol: Compound 2 was weighed and was dissolved in distilled water at preparation concentrations of 3, 10 and 30 mg/mL as the free drug to prepare test compounds.
# 0.5% methylcellulose (0.5% MC) was used as a vehicle for preparation of lubiprostone. Lubiprostone was weighed and was suspended in 0.5% MC at preparation concentrations of 1, 3 and 10 mg/mL to prepare control substances.
# Magnesium sulfate (MgSO4) (Wako pure chemical) was weighed and was dissolved in distilled water at a preparation concentrations of 200 mg/mL to prepare a positive control substance.
# A soluble starch, sucrose and lactose monohydrate were weighed at a rate of 6:3:1 and were dissolved in distilled water which was approximately 80% of the amounts of preparation on heating, and then the mixture was added with distilled water to prepare 0.4 g/mL solution of mixed carbohydrate.
# A low-fiber diet was prepared based on the literature (Kakino et al. BMC Complementary and Alternative Medicine 2010, 10: 68).
# Rats were fed on the low-fiber diet for 1-2 weeks to induce constipation.
# Compound 2 (3 mg/kg, 10 mg/kg or 30 mg/kg as free drug), lubiprostone (1 mg/kg, 3 mg/kg or 10 mg/kg), MgSO4 (2000 mg/kg) or a vehicle (distilled water: Control group 1, 0.5% MC: Control group 2) was administered orally at around 9 a.m. using a 1 mL glass syringe and a stomach tube. Then, 0.4 g/mL solution of mixed carbohydrate was administered orally at 2 mL/body to Control group 1 and the groups administered with Compound 2. Distilled water was administered to the normal feed group.
# The sum of the fecal weights at the collection times was set as the fecal weight at 24 hours after the administration.
# The statistical analysis was made by testing the uniformity of variance using Bartlett's method, and multiple comparison between Control group 1 and the group administered with Compound 2 or Control group 2 and the group administered with lubiprostone was made using Dunnett's method when variance was uniform respectively, and multiple comparison was made using Steel's method when variance was not uniform. In each case, significance level<5% was considered as significant difference.
# [3] = test system: healthy adult males; experiment: Single-dose study in healthy adult males (Example 3); type: in vivo, human; settings: for Number of subject with gastrointestinal disorders: Abdominal bloating / Number of subject with gastrointestinal disorders: Abdominal pain / Number of subject with gastrointestinal disorders: Diarrhea: of 6 subjects; for Frequency of bowel movement after the administration, Mean: 6 subjects, 48 hours, Placebo 1.7
# Protocol: Compound 2 at a single dose of 2, 5, 10, 20, 40, 80 or 160 mg (free drug equivalent), or placebo was orally administered just immediately before breakfast to healthy adult males. For the administration of Compound 2, tablets containing 1, 5 or 10 mg in free drug equivalent were used. The test period was set between the administration and the discharge 48 hours after the administration. Frequencies of bowel movements were checked during consultation by a doctor, and the adverse events (gastrointestinal disorders) were defined when an abnormal finding (diarrhea or loose stool) was seen based on the stool form and the finding.
# [4] = test system: healthy adult males; experiment: Multiple-dose study in healthy adult males (Example 4); type: in vivo, human; settings: for Daily frequency of bowel movement after the administration, Mean: once daily Days 1 and 13, 3 times daily Days 3 to 12, daily mean during fifteen days, 8 subjects, Placebo 1.0; for Number of subject with gastrointestinal disorders: Abdominal pain / Number of subject with gastrointestinal disorders: Diarrhea: of 8 subjects; for Number of subject with gastrointestinal disorders: Abdominal pain: Placebo 0; for Number of subject with gastrointestinal disorders: Diarrhea: Placebo 3
# Protocol: Compound 2 at a dose of 2, 5, 10 or 20 mg (free drug equivalent), a placebo, or miglitol at a dose of 50 mg was repetitively administered orally once daily just immediately before breakfast on administration Days 1 and 13, and 3 times daily just immediately before every meal on administration Days 3 to 12 to healthy adult males. For the administration of Compound 2, tablets containing 1, 5 or 10 mg in free drug equivalent were used. The test period was set between administration Day 1 and Day 15. Frequencies of bowel movements were checked during consultation by a doctor, and the adverse events (gastrointestinal disorders) were defined when an abnormal finding (diarrhea or loose stool) was seen based on the stool form and the finding. In this regard, the frequencies of bowel movements in Table 8 show the daily means during fifteen days (time/day).
smiles,measurement,setting,value
"Cc1cc(OCCCNCC(C)(C)C(N)=O)ccc1Cc1c(O[C@@H]2O[C@H](CO)[C@@H](O)[C@H](O)[C@H]2O)n[nH]c1C(C)C.Cc1cc(OCCCNCC(C)(C)C(N)=O)ccc1Cc1c(O[C@@H]2O[C@H](CO)[C@@H](O)[C@H](O)[C@H]2O)n[nH]c1C(C)C.O=C(O)CCCCCCCCC(=O)O [Compound 2, bis[3-(3-{4-[3-(β-D-glucopyranosyloxy)-5-isopropyl-1H-pyrazol-4-ylmethyl]-3-methylphenoxy}propylamino)-2,2-dimethylpropionamide]monosebacate]",Dry fecal weight within 24 hours after the administration,[1]; 1 mg/kg oral,10.4 g
same,Wet fecal weight within 24 hours after the administration,[1]; 1 mg/kg oral,29.5 g
same,Frequency of bowel movement within 24 hours after the administration,[1]; 1 mg/kg oral,0.5 time
same,"Wet fecal weight, dry weight and frequency of bowel movements versus Control group","[1]; 3 mg/kg or more, significance level <5%",significantly higher than in Control group
same,Dry fecal weight within 24 hours after the administration,[1]; 3 mg/kg oral,21.6 g
same,Wet fecal weight within 24 hours after the administration,[1]; 3 mg/kg oral,60.9 g
same,Frequency of bowel movement within 24 hours after the administration,[1]; 3 mg/kg oral,1.2 time
same,Dry fecal weight within 24 hours after the administration,[1]; 10 mg/kg oral,27.3 g
same,Wet fecal weight within 24 hours after the administration,[1]; 10 mg/kg oral,77.2 g
same,Frequency of bowel movement within 24 hours after the administration,[1]; 10 mg/kg oral,1.5 time
same,Increases of loose stool and diarrhea,[1]; all doses of this test,not observed
same,"Dose dependence of wet fecal weight, dry weight and frequency of bowel movements",[1]; within 24 hours after oral administration,dose-dependently increased
same,Fecal weight within 24 hours after the administration,[2]; 3 mg/kg as free drug oral,1.20 g
same,Fecal weight within 24 hours after the administration,[2]; 10 mg/kg as free drug oral,4.20 g
same,Fecal weight during 24 hours versus Control group,"[2]; 10 mg/kg or more, versus Control group 1, significance level <5%",significantly higher than in each Control group
same,Fecal weight within 24 hours after the administration,[2]; 30 mg/kg as free drug oral,4.93 g
same,Dose dependence of fecal weight during 24 hours after the administration,[2]; oral,dose-dependently increased
same,Stool form (Bristol Stool Form Scale),[3]; 80 mg and 160 mg groups,type 6 or 7 for many subjects
same,Number of subject with gastrointestinal disorders: Abdominal bloating,[3]; single dose 2 mg,0
same,Number of subject with gastrointestinal disorders: Abdominal pain,[3]; single dose 2 mg,0
same,Number of subject with gastrointestinal disorders: Diarrhea,[3]; single dose 2 mg,1
same,Number of subject with gastrointestinal disorders: Abdominal bloating,[3]; single dose 5 mg,0
same,Number of subject with gastrointestinal disorders: Abdominal pain,[3]; single dose 5 mg,0
same,Number of subject with gastrointestinal disorders: Diarrhea,[3]; single dose 5 mg,0
same,Number of subject with gastrointestinal disorders: Abdominal bloating,[3]; single dose 10 mg,0
same,Number of subject with gastrointestinal disorders: Abdominal pain,[3]; single dose 10 mg,0
same,Number of subject with gastrointestinal disorders: Diarrhea,[3]; single dose 10 mg,2
same,Number of subject with gastrointestinal disorders: Abdominal bloating,[3]; single dose 20 mg,0
same,Number of subject with gastrointestinal disorders: Abdominal pain,[3]; single dose 20 mg,0
same,Number of subject with gastrointestinal disorders: Diarrhea,[3]; single dose 20 mg,2
same,Number of subject with gastrointestinal disorders: Abdominal bloating,[3]; single dose 40 mg,0
same,Number of subject with gastrointestinal disorders: Abdominal pain,[3]; single dose 40 mg,0
same,Number of subject with gastrointestinal disorders: Diarrhea,[3]; single dose 40 mg,2
same,Number of subject with gastrointestinal disorders: Abdominal bloating,[3]; single dose 80 mg,2
same,Number of subject with gastrointestinal disorders: Abdominal pain,[3]; single dose 80 mg,4
same,Number of subject with gastrointestinal disorders: Diarrhea,[3]; single dose 80 mg,5
same,Number of subject with gastrointestinal disorders: Abdominal bloating,[3]; single dose 160 mg,3
same,Number of subject with gastrointestinal disorders: Abdominal pain,[3]; single dose 160 mg,3
same,Number of subject with gastrointestinal disorders: Diarrhea,[3]; single dose 160 mg,6
same,"Severity of gastrointestinal disorders (abdominal bloating, abdominal pain, diarrhea)",[3]; single dose 2-160 mg,mild in all the cases
same,"Frequency of bowel movement after the administration, Mean",[3]; single oral dose 2 mg (free drug equivalent),1.7 time
same,"Frequency of bowel movement after the administration, Mean",[3]; single oral dose 5 mg (free drug equivalent),1.0 time
same,"Frequency of bowel movement after the administration, Mean",[3]; single oral dose 10 mg (free drug equivalent),2.2 time
same,"Frequency of bowel movement after the administration, Mean",[3]; single oral dose 20 mg (free drug equivalent),2.2 time
same,"Frequency of bowel movement after the administration, Mean",[3]; single oral dose 40 mg (free drug equivalent),1.8 time
same,"Frequency of bowel movement after the administration, Mean",[3]; single oral dose 80 mg (free drug equivalent),4.8 time
same,"Frequency of bowel movement after the administration, Mean",[3]; single oral dose 160 mg (free drug equivalent),5.2 time
same,"Daily frequency of bowel movement after the administration, Mean",[4]; 2 mg,1.4 time/day
same,"Daily frequency of bowel movement after the administration, Mean",[4]; 5 mg,1.1 time/day
same,"Daily frequency of bowel movement after the administration, Mean",[4]; 10 mg,2.0 time/day
same,"Daily frequency of bowel movement after the administration, Mean",[4]; 20 mg,1.7 time/day
same,Number of subject with gastrointestinal disorders: Abdominal pain,[4]; multiple dose 2 mg,0
same,Number of subject with gastrointestinal disorders: Diarrhea,[4]; multiple dose 2 mg,6
same,Number of subject with gastrointestinal disorders: Abdominal pain,[4]; multiple dose 5 mg,0
same,Number of subject with gastrointestinal disorders: Diarrhea,[4]; multiple dose 5 mg,5
same,Number of subject with gastrointestinal disorders: Abdominal pain,[4]; multiple dose 10 mg,0
same,Number of subject with gastrointestinal disorders: Diarrhea,[4]; multiple dose 10 mg,5
same,Number of subject with gastrointestinal disorders: Abdominal pain,[4]; multiple dose 20 mg,1
same,Number of subject with gastrointestinal disorders: Diarrhea,[4]; multiple dose 20 mg,6
